Experiments:
[1] = system: rabbits; assay: Intraocular pressure and ocular observations after topical (eye drop) application; format: in vivo, rabbit
Procedure: The measurement of intraocular pressure (IOP), was performed using procedures similar to those described in Nathanson, Brit. J. Pharmacol., 73:97 (1981) and Nathanson, Current Eye Res., 4:191 (1985). Briefly, male (3-5 kg), New Zealand white rabbits were housed under standard conditions and exposed to a 12 hr light-dark cycle. IOP was measured with a Perkins applanation tonometer after topical anesthesia with 0.4% benoxinate (and 0.25% sodium fluorescein). The tonometer had been calibrated previously by connecting the anterior chamber of enucleated rabbit eyes to a manometer (and reservoir) and taking tonometer readings at different pressures. A number of preliminary IOP readings were made in order to accommodate the animals to the measurement procedure. Readings were then taken just prior to drug or vehicle injection and at 3, 9, 20, 27, 44, 51, 72, and 144 hours post-injection.
A potent PDE inhibitor of the arylxanthine class, 1,3-dibutylxanthine, was applied unilaterally and topically to rabbit eyes in a 0.5% solution. […] The IOP was decreased 4 mm (Hg) in the ipsilateral eye (Figure 8).
Again there was about a 4 mm (Hg) decrease in intraocular pressure. […] This xanthine inhibited the enzyme with an IC₅₀ (concentration necessary for 50% enzyme inhibition) of 25 uM.
(§1) The effect of nitroglycerine eye drops on rabbit intraocular pressure was also measured. The IOP of 8 conscious, male albino rabbits (3-4 kg) was measured by applanation pnumatonometry after topical anesthesia with 0.4% benoxinate. Nitroglycerine in phosphate buffered saline, pH 7.4, was given unilaterally, in two 25µl drops spaced five minutes apart. Blood pressure and pulse rate were measured by a photoelectric detector using an automated external tail cuff. […] By 24 hours, pressure had returned to normal.

[2] = system: rabbits; assay: Systemic blood pressure and pulse rate (tail cuff) after eye drops; format: in vivo, rabbit; conditions: 0.03% eye drops
Procedure: as §1

[3] = system: guanylate cyclase; assay: Guanylate cyclase activation in crude broken-cell preparation of ciliary process; format: biochemical, rabbit; conditions: low concentrations
Procedure: Generally, the broken cell preparations are prepared according to the method described in a paper by Nathanson et al., (Molecular Pharmacology 20:68 (1981), which is herein incorporated by reference. Choroid epithelial cells are prepared as described in Example 1. To measure activity of atriopeptins, analogues, or agonists thereof, washed particulate cell preparations are prepared by using the pellet obtained following high speed centrifugation. To measure direct activators of guanylate cyclase, the crude broken-cell preparation without centrifugation is used. Guanylate cyclase activity is measured in appropriate buffer-containing GTP, cofactors, tissue fraction, and the compound to be tested. […] Cyclic GMP can be measured by any test which indicates the presence thereof, typically by the radioimmunoassay as described in Example 6. […] Ka^B, where B is the test compound, is compared with the constant (Ka^ANF) determined in an analogous way using rat atrial natriuretic factor (rANF) as a standard. […]
The effect of rANP on membrane-bound guanylate cyclase and adenylate cyclase activity in various brain-barrier tissues and tissue fractions from rabbit was compared with its activity in cerebrum and cerebellum. Guanylate cyclase was measured as the rate of cyclic GMP formation by modifications of the technique of Waldman et al., supra, incorporated herein by reference. […]

[4] = system: volunteer human; assay: Eye drop in a volunteer human: IOP, blood pressure and pulse; format: in vivo; conditions: 50µl of 0.1% aqueous solution in one eye
Procedure: The effect of administration of a nitroglycerine eye drop preparation (50µl of 0.1% aqueous solution in one eye) in a volunteer human is illustrated in Figure 14. IOP was measured by applanation pnumatonometry and blood pressure and pulse were measured by arm cuff.

## O=[N+]([O-])OCC(CO[N+](=O)[O-])O[N+](=O)[O-] [nitroglycerine, 1,2,3-propanetriol trinitrate]
[1]; 0.03% (gm/100ml) solution, two 25µl drops, 8 rabbits
  decrease in IOP at maximum: 5.2 mm Hg
[1]; 0.03% solution
  IOP at six hours: still significantly reduced
  time of greatest IOP decrease: greatest at one hour
  time until pressure had returned to normal: ≤ 24 h
[1]; 50µl eye drops, doses above 0.03%, Fig. 13
  effect of higher doses on IOP: no additional decrease in IOP
[1]; 50µl eye drops, lower doses, Fig. 13
  effect of lower doses on IOP: less effective
[1]; all doses
  conjunctival inflammation and pupillary diameter: At no dose did conjunctival inflammation nor any change in pupillary diameter occur
[1]; higher doses
  contralateral decrease in pressure relative to that seen ipsilaterally: 40-75%
[1]; higher doses (0.1%)
  hyperemia of the conjunctival vessels: slight, transient (five minutes) hyperemia
[2]
  change in pulse rate or in systolic, diastolic or mean blood pressure: no significant change
[3]
  stimulation of basal guanylate cyclase activity: significant stimulation
[4]
  effect on IOP: significantly decreased IOP
  systemic blood pressure or pulse: without change
